The source of these data is ChEMBL document CHEMBL1150088, “Bioactive Guanidine Alkaloids from Pterogyne nitens” (J Nat Prod, 1995).

The test system of experiment [1] is Saccharomyces cerevisiae. The experiment is described as follows: DNA damaging activity against RS167N rad6 DNA repair gene deficient Saccharomyces cerevisiae mutant assessed as drug level required to produce 12 mm zone of inhibition after 48 hrs. Type of experiment: functional.
Experiment [2] deals with Saccharomyces cerevisiae. The experiment is described as follows: DNA damaging activity against RS322YK rad52Y DNA repair gene deficient Saccharomyces cerevisiae mutant assessed as drug level required to produce 12 mm zone of inhibition after 48 hrs. Type of experiment: functional.
Experiment [3] is described as follows: Cytotoxicity against CHOAUXB1 cells. To be noted: Cricetulus griseus. Type of experiment: cell-based.
The test system of experiment [4] is Saccharomyces cerevisiae. Briefly: DNA damaging activity against RS321 DNA repair gene deficient Saccharomyces cerevisiae mutant assessed as drug level required to produce 12 mm zone of inhibition after 48 hrs. Type of experiment: functional.
Experiment [5] deals with Saccharomyces cerevisiae. Briefly: DNA damaging activity against RS188N rad DNA repair gene expressing Saccharomyces cerevisiae assessed as drug level required to produce 12 mm zone of inhibition after 48 hrs. Type of experiment: functional.

The term IC50 denotes the midpoint of a concentration-inhibition curve. A lower IC50 goes with greater potency.

Values after ≈ are worked out from the molar mass of the structure shown.

With `COC1=C(N)C(=O)c2nc(-c3nc(C(=O)O)c(C)c(-c4ccc(OC)c(OC)c4O)c3N)ccc2C1=O` [STREPTONIGRIN], the IC12 in the experiment on Saccharomyces cerevisiae [1] is 2.4 µg/mL; in the experiment with Saccharomyces cerevisiae [2], 0.4 µg/mL.

As for `CC[C@@]1(O)C(=O)OCc2c1cc1n(c2=O)Cc2cc3ccccc3nc2-1` [CAMPTOTHECIN], the IC12 in the experiment with Saccharomyces cerevisiae [1] was 8.7 µg/mL; in the experiment with Saccharomyces cerevisiae [2], 0.6 µg/mL. Inhibition in experiment [3] was half-maximal at 0.016 µg/mL (≈ 0.0459 µM) (IC50).

In the case of `CC(C)=CCC/C(C)=C/CN(C/C=C(\C)CCC=C(C)C)C(=N)N` [NITENSIDINE B], the IC12 in the experiment with Saccharomyces cerevisiae [4] was 10 µg/mL; with Saccharomyces cerevisiae [1] it was above 8000 µg/mL; in the experiment with Saccharomyces cerevisiae [2], above 500 µg/mL; with Saccharomyces cerevisiae [5], above 1000 µg/mL. The IC50 in experiment [3] was determined as 9.3 µg/mL (≈ 28.1 µM).

With `CC(C)=CCC/C(C)=C/CNC(=N)NC/C=C(\C)CCC=C(C)C` [NITENSIDINE A], the IC12 in the experiment on Saccharomyces cerevisiae [4] was 6 µg/mL; in the experiment with Saccharomyces cerevisiae [1], above 8000 µg/mL; in the experiment with Saccharomyces cerevisiae [2], above 1000 µg/mL; with Saccharomyces cerevisiae [5], above 1000 µg/mL. Moreover, the IC50 in experiment [3] came out at 13 µg/mL (≈ 39.2 µM).

Regarding `CC(C)=CCNC(=N)NCC=C(C)C` [PTEROGYNIDINE], the IC12 was 8.5 µg/mL in the experiment on Saccharomyces cerevisiae [4], above 1000 µg/mL in the experiment on Saccharomyces cerevisiae [1], above 1000 µg/mL in the experiment on Saccharomyces cerevisiae [2] and above 1000 µg/mL with Saccharomyces cerevisiae [5].

In the case of `CC(C)=CCC/C(C)=C/CN(C)C(=N)N(C)C/C=C(\C)CCC=C(C)C` [NITENSIDINE C], the IC12 with Saccharomyces cerevisiae [4] was 13 µg/mL; in the experiment on Saccharomyces cerevisiae [1], above 8000 µg/mL; with Saccharomyces cerevisiae [2], above 8000 µg/mL; with Saccharomyces cerevisiae [5], above 8000 µg/mL. Further, in experiment [3], the IC50 was 20 µg/mL (≈ 55.6 µM).
